Values quoted from earlier work as cited in US20190021988A1, “ENHANCED TRANSDERMAL DELIVERY OF ACTIVE AGENTS” (priority 2016, published 2019).

Tested on: desmosome-induced tight junctions between corneocytes

Substance: TD-1: skin penetrating peptide with the amino acid sequence ACSSSPSKHCG, disclosed in WO2007/035474
- time until cell gaps are restored after treatment (after treatment): 1 h
- space between cells after topical application (change from about 30 nm, in 30 minutes from topical application): about 466 nm
